Measurements: patent US6358885B1, “Substituted phenylheterocyclic herbicides” (Mississippi State University, priority 1992, dated 2002)

Legend:
Assay in all cases: Test B preemergence/postemergence greenhouse plant response rating 0 to 10
[1] = tested on: velvetleaf; format: in vivo, Abutilon theophrasti; conditions: 0 to 10 scale
How it was run: (§1)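 Postemergence treatment of plants two to eighteen cm tall ran alongside preemergence treatment of planted seed, each using compound in a non-phytotoxic solvent.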

[2] = tested on: rice; format: in vivo, Oryza sativa; conditions: 0 to 10 scale
How it was run: as §1

[3] = tested on: cheatgrass; format: in vivo, Bromus secalinus; conditions: 0 to 10 scale
How it was run: as §1

[4] = tested on: soybean; format: in vivo, Glycine max; conditions: 0 to 10 scale
How it was run: as §1

[5] = tested on: chickweed; format: in vivo, Stellaria media; conditions: 0 to 10 scale
How it was run: as §1

[6] = tested on: cotton; format: in vivo, Gossypium hirsutum; conditions: 0 to 10 scale
How it was run: as §1

[7] = tested on: purple nutsedge; format: in vivo, Cyperus rotundus; conditions: 0 to 10 scale
How it was run: as §1

[8] = tested on: sorghum; format: in vivo, Sorghum bicolor; conditions: 0 to 10 scale
How it was run: as §1

[9] = tested on: morningglory; format: in vivo, Ipomoea hederacea; conditions: 0 to 10 scale
How it was run: as §1

[10] = tested on: bedstraw; format: in vivo, Galium aparine; conditions: 0 to 10 scale
How it was run: as §1

[11] = tested on: wild buckwheat; format: in vivo, Polygonum convolvulus; conditions: 0 to 10 scale
How it was run: as §1

[12] = tested on: wheat; format: in vivo, Triticum aestivum; conditions: 0 to 10 scale
How it was run: as §1

[13] = tested on: wild oat; format: in vivo, Avena fatua; conditions: 0 to 10 scale
How it was run: as §1

[14] = tested on: cocklebur; format: in vivo, Xanthium pensylvanicum; conditions: 0 to 10 scale
How it was run: as §1

[15] = tested on: lambsquarters; format: in vivo, Chenopodium album; conditions: 0 to 10 scale
How it was run: as §1

[16] = tested on: corn; format: in vivo, Zea mays; conditions: 0 to 10 scale
How it was run: as §1

[17] = tested on: blackgrass; format: in vivo, Alopecurus myosuroides; conditions: 0 to 10 scale
How it was run: as §1

[18] = tested on: barley; format: in vivo, Hordeum vulgare; conditions: 0 to 10 scale
How it was run: as §1

[19] = tested on: barnyardgrass; format: in vivo, Echinochloa crus-galli; conditions: 0 to 10 scale
How it was run: as §1

[20] = tested on: rape; format: in vivo, Brassica napus; conditions: 0 to 10 scale
How it was run: as §1

[21] = tested on: sugar beet; format: in vivo, Beta vulgaris; conditions: 0 to 10 scale
How it was run: as §1

[22] = tested on: giant foxtail; format: in vivo, Setaria faberii; conditions: 0 to 10 scale
How it was run: as §1

[23] = tested on: crabgrass; format: in vivo, Digitaria spp.; conditions: PREEMERGENCE, 0 to 10 scale
How it was run: as §1

For CC(=O)c1cc(-c2nn3c(c2Cl)CCCC3)c(F)cc1Cl [Compound 45], the “Plant response rating, Velvetleaf” value ([1]; POSTEMERGENCE, Rate 50 g/ha) was 9, the “Plant response rating, Velvetleaf” value ([1]; PREEMERGENCE, Rate 50 g/ha) was 2 and the “Plant response rating, Velvetleaf” value ([1]; Rate 200 g/ha, POSTEMERGENCE) was 10. For the same compound, the “Plant response rating, Velvetleaf” value ([1]; Rate 200 g/ha, PREEMERGENCE) was 0, the “Plant response rating, Rice” value ([2]; POSTEMERGENCE, Rate 50 g/ha) was 6 and the “Plant response rating, Rice” value ([2]; PREEMERGENCE, Rate 50 g/ha) was 0. For the same compound, the “Plant response rating, Rice” value ([2]; Rate 200 g/ha, POSTEMERGENCE) was 6, the “Plant response rating, Rice” value ([2]; Rate 200 g/ha, PREEMERGENCE) was 3 and the “Plant response rating, Cheatgrass” value ([3]; POSTEMERGENCE, Rate 50 g/ha) was 4. For the same compound, the “Plant response rating, Cheatgrass” value ([3]; POSTEMERGENCE, Rate 200 g/ha) was 6, the “Plant response rating, Cheatgrass” value ([3]; PREEMERGENCE, Rate 50 g/ha) was 2 and the “Plant response rating, Cheatgrass” value ([3]; Rate 200 g/ha, PREEMERGENCE) was 2. For the same compound, the “Plant response rating, Soybean” value ([4]; POSTEMERGENCE, Rate 50 g/ha) was 8, the “Plant response rating, Soybean” value ([4]; PREEMERGENCE, Rate 50 g/ha) was 0 and the “Plant response rating, Soybean” value ([4]; Rate 200 g/ha, POSTEMERGENCE) was 8. The “Plant response rating, Soybean” value ([4]; Rate 200 g/ha, PREEMERGENCE) was 2, the “Plant response rating, Chickweed” value ([5]; POSTEMERGENCE, Rate 50 g/ha) was 8 and the “Plant response rating, Chickweed” value ([5]; POSTEMERGENCE, Rate 200 g/ha) was 7. The “Plant response rating, Chickweed” value ([5]; PREEMERGENCE, Rate 50 g/ha) was 3, the “Plant response rating, Chickweed” value ([5]; Rate 200 g/ha, PREEMERGENCE) was 2 and the “Plant response rating, Cotton” value ([6]; POSTEMERGENCE, Rate 50 g/ha) was 10. For the same compound, the “Plant response rating, Cotton” value ([6]; POSTEMERGENCE, Rate 200 g/ha) was 10, the “Plant response rating, Cotton” value ([6]; PREEMERGENCE, Rate 50 g/ha) was 0 and the “Plant response rating, Cotton” value ([6]; Rate 200 g/ha, PREEMERGENCE) was 0. For the same compound, the “Plant response rating, Nutsedge” value ([7]; PREEMERGENCE, Rate 50 g/ha) was 0, the “Plant response rating, Nutsedge” value ([7]; Rate 200 g/ha, POSTEMERGENCE) was 6 and the “Plant response rating, Nutsedge” value ([7]; Rate 200 g/ha, PREEMERGENCE) was 0. The “Plant response rating, Sorghum” value ([8]; POSTEMERGENCE, Rate 50 g/ha) was 4, the “Plant response rating, Sorghum” value ([8]; PREEMERGENCE, Rate 50 g/ha) was 0 and the “Plant response rating, Sorghum” value ([8]; Rate 200 g/ha, POSTEMERGENCE) was 5. The “Plant response rating, Sorghum” value ([8]; Rate 200 g/ha, PREEMERGENCE) was 1, the “Plant response rating, Morningglory” value ([9]; POSTEMERGENCE, Rate 50 g/ha) was 8 and the “Plant response rating, Morningglory” value ([9]; PREEMERGENCE, Rate 50 g/ha) was 2. For the same compound, the “Plant response rating, Morningglory” value ([9]; Rate 200 g/ha, POSTEMERGENCE) was 9, the “Plant response rating, Morningglory” value ([9]; Rate 200 g/ha, PREEMERGENCE) was 4 and the “Plant response rating, Bedstraw” value ([10]; POSTEMERGENCE, Rate 50 g/ha) was 8. The “Plant response rating, Bedstraw” value ([10]; POSTEMERGENCE, Rate 200 g/ha) was 10, the “Plant response rating, Bedstraw” value ([10]; PREEMERGENCE, Rate 50 g/ha) was 2 and the “Plant response rating, Bedstraw” value ([10]; Rate 200 g/ha, PREEMERGENCE) was 4. For the same compound, the “Plant response rating, Wild buckwheat” value ([11]; POSTEMERGENCE, Rate 50 g/ha) was 10, the “Plant response rating, Wild buckwheat” value ([11]; PREEMERGENCE, Rate 50 g/ha) was 3 and the “Plant response rating, Wild buckwheat” value ([11]; Rate 200 g/ha, POSTEMERGENCE) was 10. The “Plant response rating, Wild buckwheat” value ([11]; Rate 200 g/ha, PREEMERGENCE) was 10, the “Plant response rating, Wheat” value ([12]; POSTEMERGENCE, Rate 50 g/ha) was 3 and the “Plant response rating, Wheat” value ([12]; PREEMERGENCE, Rate 50 g/ha) was 2. For the same compound, the “Plant response rating, Wheat” value ([12]; Rate 200 g/ha, POSTEMERGENCE) was 8, the “Plant response rating, Wheat” value ([12]; Rate 200 g/ha, PREEMERGENCE) was 5 and the “Plant response rating, Wild oat” value ([13]; POSTEMERGENCE, Rate 50 g/ha) was 2. The “Plant response rating, Wild oat” value ([13]; PREEMERGENCE, Rate 50 g/ha) was 2, the “Plant response rating, Wild oat” value ([13]; Rate 200 g/ha, POSTEMERGENCE) was 3 and the “Plant response rating, Cocklebur” value ([14]; POSTEMERGENCE, Rate 50 g/ha) was 7. For the same compound, the “Plant response rating, Cocklebur” value ([14]; POSTEMERGENCE, Rate 200 g/ha) was 8, the “Plant response rating, Cocklebur” value ([14]; PREEMERGENCE, Rate 50 g/ha) was 0 and the “Plant response rating, Cocklebur” value ([14]; Rate 200 g/ha, PREEMERGENCE) was 4. For the same compound, the “Plant response rating, Lambsquarter” value ([15]; POSTEMERGENCE, Rate 50 g/ha) was 10, the “Plant response rating, Lambsquarter” value ([15]; PREEMERGENCE, Rate 50 g/ha) was 10 and the “Plant response rating, Lambsquarter” value ([15]; Rate 200 g/ha, POSTEMERGENCE) was 10. For the same compound, the “Plant response rating, Lambsquarter” value ([15]; Rate 200 g/ha, PREEMERGENCE) was 10, the “Plant response rating, Corn” value ([16]; POSTEMERGENCE, Rate 50 g/ha) was 5 and the “Plant response rating, Corn” value ([16]; POSTEMERGENCE, Rate 200 g/ha) was 5. For the same compound, the “Plant response rating, Corn” value ([16]; PREEMERGENCE, Rate 50 g/ha) was 0, the “Plant response rating, Corn” value ([16]; Rate 200 g/ha, PREEMERGENCE) was 1 and the “Plant response rating, Blackgrass” value ([17]; POSTEMERGENCE, Rate 50 g/ha) was 6. The “Plant response rating, Blackgrass” value ([17]; POSTEMERGENCE, Rate 200 g/ha) was 3, the “Plant response rating, Blackgrass” value ([17]; PREEMERGENCE, Rate 50 g/ha) was 2 and the “Plant response rating, Blackgrass” value ([17]; Rate 200 g/ha, PREEMERGENCE) was 3. The “Plant response rating, Barley” value ([18]; POSTEMERGENCE, Rate 50 g/ha) was 4, the “Plant response rating, Barley” value ([18]; POSTEMERGENCE, Rate 200 g/ha) was 3 and the “Plant response rating, Barley” value ([18]; PREEMERGENCE, Rate 50 g/ha) was 0. The “Plant response rating, Barley” value ([18]; Rate 200 g/ha, PREEMERGENCE) was 2, the “Plant response rating, Barnyardgrass” value ([19]; POSTEMERGENCE, Rate 50 g/ha) was 3 and the “Plant response rating, Barnyardgrass” value ([19]; POSTEMERGENCE, Rate 200 g/ha) was 5. For the same compound, the “Plant response rating, Barnyardgrass” value ([19]; PREEMERGENCE, Rate 50 g/ha) was 0, the “Plant response rating, Barnyardgrass” value ([19]; Rate 200 g/ha, PREEMERGENCE) was 5 and the “Plant response rating, Rape” value ([20]; POSTEMERGENCE, Rate 50 g/ha) was 3. The “Plant response rating, Rape” value ([20]; PREEMERGENCE, Rate 50 g/ha) was 2, the “Plant response rating, Rape” value ([20]; Rate 200 g/ha, POSTEMERGENCE) was 10 and the “Plant response rating, Rape” value ([20]; Rate 200 g/ha, PREEMERGENCE) was 7. For the same compound, the “Plant response rating, Sugar beet” value ([21]; POSTEMERGENCE, Rate 50 g/ha) was 7, the “Plant response rating, Sugar beet” value ([21]; PREEMERGENCE, Rate 50 g/ha) was 7 and the “Plant response rating, Sugar beet” value ([21]; Rate 200 g/ha, POSTEMERGENCE) was 10. The “Plant response rating, Sugar beet” value ([21]; Rate 200 g/ha, PREEMERGENCE) was 9, the “Plant response rating, Giant foxtail” value ([22]; POSTEMERGENCE, Rate 50 g/ha) was 5 and the “Plant response rating, Giant foxtail” value ([22]; PREEMERGENCE, Rate 50 g/ha) was 2. The “Plant response rating, Giant foxtail” value ([22]; Rate 200 g/ha, POSTEMERGENCE) was 5, the “Plant response rating, Giant foxtail” value ([22]; Rate 200 g/ha, PREEMERGENCE) was 5 and the “Plant response rating, Crabgrass” value ([23]; Rate 50 g/ha) was 0. For the same compound, the “Plant response rating, Crabgrass” value ([23]; Rate 200 g/ha) was 6.
